Assay results: US10183927B2, “Crystalline forms of C21H22Cl2N4O2” (BIOMED VALLEY DISCOVERIES, INC., priority 2015, dated 2019)
Structures can show the parent of a compound that is named as a salt.

Assay: Interconversion of solid forms as a function of relative humidity
Format: physicochemical
Description: A vessel containing 4-(5-Chloro-2-isopropylaminopyridin-4-yl)-1H-pyrrole-2-carboxylic acid [1-(3-chlorophenyl)-2-hydroxyethyl]amide Form A was purged with dry nitrogen and relative humidity was monitored. After about 73 minutes the relative humidity had decreased from 36.9% to 1.0%.

Row | solid form upon sorption of water (sorption of water) | SMILES | solid form after purging with dry nitrogen (relative humidity decreased from 36.9% to 1.0% after about 73 minutes)
1 | observed to be Form A | CC(C)Nc1cc(-c2c[nH]c(C(=O)N[C@H](CO)c3cccc(Cl)c3)c2)c(Cl)cn1 [Form D, 4-(5-Chloro-2-isopropylaminopyridin-4-yl)-1H-pyrrole-2-carboxylic acid [1-(3-chlorophenyl)-2-hydroxyethyl]amide HCl] | 
2 |  | CC(C)Nc1cc(-c2c[nH]c(C(=O)N[C@H](CO)c3cccc(Cl)c3)c2)c(Cl)cn1 [Form A, 4-(5-Chloro-2-isopropylaminopyridin-4-yl)-1H-pyrrole-2-carboxylic acid [1-(3-chlorophenyl)-2-hydroxyethyl]amide HCl hydrate] | determined to be a new form, designated Form D
